In PMC9364673 (Bioorganic Chemistry, 2022):
Like-named read-outs stand apart in the source and are kept apart here.

Columns and labels:
[1] = target: DPP-4 enzyme (Homo sapiens, UniProt P27487); assay: biochemical
[2] = tested on: normal rats; assay: In vivo screening of antihyperglycemic effect, oral tolerance test; set-up: species or system male Wistar albino rats; settings: OGTT, oral administration, NA: Not active
[3] = Antioxidant activity, DPPH scavenging method; settings: read-out: IC50 (DPPH scavenging); DPPH 100 μM, 30 min, mean ± SD
[4] = tested on: type 2 diabetic rats; assay: In vivo antidiabetic effect of a single dose on OGTT in type 2 diabetic; set-up: species or system male Wistar albino rats; settings: oral doses equivalent to 10 mg/kg, NA: Not active
[5] = tested on: CRP; assay: ELISA of CRP release by LPS-stimulated RAW264.7 macrophages; assay type: cell-based, murine; settings: LPS (1 μg/mL) stimulated RAW264.7, compound at ¼ IC50, ELISA, compared to LPS
[6] = tested on: RAW264.7 cells; assay: MTT cell viability assay on RAW264.7 macrophages; assay type: cell-based, murine; settings: Mus musculus, RAW264.7, 24 h, read-out: IC50 (RAW264.7 cells viability)
[7] = tested on: IL-6; assay: ELISA of IL-6 release by LPS-stimulated RAW264.7 macrophages; assay type: cell-based, murine; settings: LPS (1 μg/mL) stimulated RAW264.7, compound at ¼ IC50, ELISA, compared to LPS

Sequence of DPP-4 enzyme (P27487 whole entry): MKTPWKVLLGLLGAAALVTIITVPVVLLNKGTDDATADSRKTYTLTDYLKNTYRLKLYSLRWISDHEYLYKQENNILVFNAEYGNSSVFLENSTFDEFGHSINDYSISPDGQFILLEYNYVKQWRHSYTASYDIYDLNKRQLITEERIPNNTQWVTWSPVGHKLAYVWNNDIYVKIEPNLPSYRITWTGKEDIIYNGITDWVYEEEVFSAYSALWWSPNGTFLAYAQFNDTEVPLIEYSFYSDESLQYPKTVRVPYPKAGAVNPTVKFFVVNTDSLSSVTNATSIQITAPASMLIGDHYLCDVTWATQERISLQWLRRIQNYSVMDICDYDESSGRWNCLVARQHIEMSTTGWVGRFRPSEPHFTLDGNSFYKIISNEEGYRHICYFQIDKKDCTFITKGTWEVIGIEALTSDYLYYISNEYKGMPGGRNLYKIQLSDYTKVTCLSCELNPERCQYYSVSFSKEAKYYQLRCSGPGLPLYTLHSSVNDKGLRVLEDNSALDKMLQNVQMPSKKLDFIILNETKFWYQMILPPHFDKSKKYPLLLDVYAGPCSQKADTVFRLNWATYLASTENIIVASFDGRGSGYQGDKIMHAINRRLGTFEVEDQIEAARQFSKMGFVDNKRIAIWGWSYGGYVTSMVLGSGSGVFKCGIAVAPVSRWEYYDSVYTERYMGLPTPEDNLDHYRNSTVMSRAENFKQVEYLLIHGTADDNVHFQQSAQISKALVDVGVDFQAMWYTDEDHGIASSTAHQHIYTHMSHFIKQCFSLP

SMILES | IC50 [1] | % Reduction in BGL compared to control [2] | IC50 [3] | % Reduction in BGL compared to control [4] | also measured
O=C(O)CSc1ncc(S(=O)(=O)NC(=O)Nc2ccccc2)c(=O)[nH]1 [Compound 5c, 2-[[6-Oxo-5-(phenylcarbamoylsulfamoyl)-1H-pyrimidin-2-yl]sulfanyl]acetic acid] | 290 ± 18 nM |  |  |  | 
NNc1ncc(S(=O)(=O)NC(=O)Nc2ccccc2)c(=O)[nH]1 [Compound 6c, 1-[(2-Hydrazino-6-oxo-1H-pyrimidin-5-yl)sulfonyl]-3-phenyl-urea] | 264 ± 13 nM | 17.36% |  |  | 
Cc1ccc(NC(=S)NS(=O)(=O)c2cnc(SCC(=O)O)[nH]c2=O)cc1 [Compound 5b, 2-[[5-(4-Methylphenylcarbamothioylsulfamoyl)-6-oxo-1H-pyrimidin-2-yl]sulfanyl]acetic acid] | 634 ± 31 nM | 15.89% |  |  | 
O=C(Nc1ccccc1)NS(=O)(=O)c1cnc(N/N=C/c2ccccc2)[nH]c1=O [Compound 8c, 1-[[2-[(2E)-2-benzylidenehydrazino]-6-oxo-1H-pyrimidin-5-yl]sulfonyl]-3-phenyl-urea] | 468 ± 23 nM |  |  |  | 
Cc1c(C)c2c(c(C)c1O)CCC(C)(C(=O)O)O2 (stereo not shown) [Trolox, reference compound] |  |  | 55200 ± 2800 nM |  | 
Cc1ccc(NC(=O)NS(=O)(=O)C2=CNC3SC(=O)CN3C2=O)cc1 (stereo not shown) [Compound 4d, 3-(4-Methylphenyl)-1-[(2,5-dioxo-8,8a-dihydro-3H-thiazolo[3,2-a]pyrimidin-6-yl)sulfonyl]-urea] | 1320 ± 65 nM |  |  |  | 
O=c1c(S(=O)(=O)NC(=S)Nc2ccccc2)cnc2[nH]ncn12 [Compound 7a, 1-[(5-oxo-1H-[1], [2], [4]triazolo[4,3-a]pyrimidin-6-yl)sulfonyl]-3-phenyl-thiourea] |  | 17.55% |  |  | IC50 ([1]; read-out: DPP-4 IC50, in vitro, 0.01 to 10 µM, mean ± SD): 153 ± 8 nM
O=C(Nc1ccccc1)NS(=O)(=O)C1=CNC2SC(=O)CN2C1=O (stereo not shown) [Compound 4c, 1-[(2,5-Dioxo-8,8a-dihydro-3H-thiazolo[3,2-a]pyrimidin-6-yl)sulfonyl]-3-phenyl-urea] | 418 ± 20 nM |  |  |  | 
O=C(O)CSc1ncc(S(=O)(=O)NC(=S)Nc2ccccc2)c(=O)[nH]1 [Compound 5a, 2-[[6-Oxo-5-(phenylcarbamothioylsulfamoyl)-1H-pyrimidin-2-yl]sulfanyl]acetic acid] | 577 ± 28 nM |  |  |  | 
Cc1ccc(S(=O)(=O)NC(=O)NN2CC3CCCC3C2)cc1 (stereo not shown) [Diamicron, reference compound] |  | 15.86% |  |  | 
CC#CCn1c(N2CCC[C@@H](N)C2)nc2c1c(=O)n(Cc1nc(C)c3ccccc3n1)c(=O)n2C [Linagliptin, linagliptin, reference compound] |  |  |  | 36.42% | 
Cc1ccc(NC(=S)NS(=O)(=O)c2cnc(N/N=C/c3ccccc3)[nH]c2=O)cc1 [Compound 8b, 1-[[2-[(2E)-2-benzylidenehydrazino]-6-oxo-1H-pyrimidin-5-yl]sulfonyl]-3-(4-methylphenyl)-thiourea] | 75 ± 3 nM |  | 60800 ± 3100 nM | 23.94% | reduction of the release of CRP [5]: ~82.6%; IC50 [6]: 155000 ± 24200 nM; decrease in IL-6 levels [7]: ~80.2%
Cc1ccc(NC(=S)NS(=O)(=O)C2=CNC3SC(=O)CN3C2=O)cc1 (stereo not shown) [Compound 4b, 3-(4-Methylphenyl)-1-[(2,5-dioxo-8,8a-dihydro-3H-thiazolo[3,2-a]pyrimidin-6-yl)sulfonyl]-thiourea] | 63 ± 3 nM |  | 65900 ± 3400 nM | 36.59% | IC50 [6]: 241000 ± 69200 nM
NNc1ncc(S(=O)(=O)NC(=S)Nc2ccccc2)c(=O)[nH]1 [Compound 6a, 1-[(2-Hydrazino-6-oxo-1H-pyrimidin-5-yl)sulfonyl]-3-phenyl-thiourea] | 47 ± 2 nM | 17.70% | 139000 ± 7100 nM | 23.24% | reduction of the release of CRP [5]: about 75.5%; IC50 [6]: 175000 ± 24700 nM; decrease in IL-6 levels [7]: about 85.9%
O=c1[nH]c(N/N=C/c2ccccc2)ncc1S(=O)(=O)NC(=S)Nc1ccccc1 [Compound 8a, 1-[[2-[(2E)-2-benzylidenehydrazino]-6-oxo-1H-pyrimidin-5-yl]sulfonyl]-3-phenyl-thiourea] | 104 ± 5 nM | 16.88% |  |  | 
Cc1ccc(NC(=S)NS(=O)(=O)c2cnc(NN)[nH]c2=O)cc1 [Compound 6b, 1-[(2-Hydrazino-6-oxo-1H-pyrimidin-5-yl)sulfonyl]-3-(4-methylphenyl)-thiourea] | 71 ± 4 nM |  | 123000 ± 6300 nM | 41.00% | IC50 [6]: 189000 ± 26000 nM
